We go through 21 compounds from PubChem BioAssay (NCI).

“And” between values parts separate entries of the source, which are not always exact repeats. Equal values may be shown once.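 Test compounds were applied to cells in 96-well plates for 48 hours at 5 doses. The concentration for 50% growth inhibition is given as GI50. Definition used: TGI = concentration required for complete inhibition of growth.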

Holding throughout (experiment): growth of human tumour cells (NCI), 48 h
Assay [1] deals with HT29 colon.
The test system of assay [2] is HCC-2998 colon.
Assay [3] relates to MCF7 breast.
Assay [4] concerns SNB-75 CNS.
Assay [5] relates to HCT-15 colon.
In assay [6] the test system is SF-295 CNS.
The subject of assay [7] is RPMI-8226 leukemia.
In assay [8] the test system is UACC-62 melanoma.
Assay [9] relates to MALME-3M melanoma.
Assay [10] deals with SK-MEL-2 melanoma.

Regarding `CCCCCCCCCCCCCCCCCC(=O)OCC(COC1OC(CS(=O)(=O)O)C(O)C(O)C1O)OC(=O)CCCCCCCCCCCCCCCCC` (stereo unspecified), the TGI in assay [1], in assay [2], in assay [3], in assay [4], in assay [5] and in [6] was over 100 µM in each case. Further, the TGI in [7], in assay [8] and in [9] was over 100 µM in each case.
Turning to `COC1=CC(c2ccc[nH]2)=N/C1=C\c1[nH]c(C)c(C(C)=O)c1C`, the GI50 in assay [1] is 0.088 µM; in assay [10] it was 1.99 µM; in [2], 2.08 µM; in assay [3], 1.05 µM; in assay [5], 0.21 µM; in [6] it was 10 µM. Also, the GI50 in assay [7] was 0.329 µM. Moreover, the TGI in assay [1] is over 100 µM; in [10], 6.63 µM; in assay [2] it was over 100 µM; in [3], over 100 µM; in assay [5] it was 2.15 µM; in [6], over 100 µM. In assay [7], this compound displayed a TGI of 2.69 µM.
As to `O=C(O)c1ccccc1-c1ccccc1C(=O)Nc1ccc2c(c1)[nH]c(=O)c1ccccc12`, the TGI in [1], in [10], in [3], in assay [4], in assay [5] and in assay [6] was over 100 µM in each case. The TGI in assay [7], in assay [8] and in assay [9] was over 100 µM in each case.
As for `Cc1ccc(-c2nc(N)c(C#N)c3c2CCOc2c-3ccc3ccccc23)cc1`, the GI50 in [1] was 0.387 µM; in assay [2], 0.142 µM; in [3], 0.284 µM; in assay [4], 5.02 µM; in assay [5] it was 0.0543 µM; in assay [6] it was 0.144 µM. Besides, the GI50 in assay [7] is 0.29 µM; in assay [8], 0.935 µM; in assay [9], 0.0779 µM. In addition, the TGI in [1] is 54.1 µM; in assay [3], over 34.4 µM; in [4], over 100 µM; in assay [6] it was 1.87 µM; in assay [7] it was 2.26 µM; in [8], over 100 µM. In [9], this compound returned a TGI of 7.89 µM.
As for `N#CCCSC(=S)C1CCCC1=N` (stereo unspecified), the TGI in assay [1] was over 100 µM; in [10] it was over 100 µM; in assay [3] it was over 100 µM; in assay [4], 94.4 µM; in [5] it was over 100 µM; in assay [6], over 100 µM. Further, the TGI in assay [7], in [8] and in assay [9] was over 100 µM throughout.
Consider `N#C/C(=C1C=C/C(=N\O)C(Cl)=C\1)c1ccccc1`, for which the GI50 was 3.35 µM in assay [1]; 4.27 µM in assay [2]; 0.321 µM in [3]; 3.5 µM in [4]; 2.34 µM in assay [5]; 3.74 µM in [6]. For the same compound, the GI50 in [7] is 0.451 µM; in [8], 2.8 µM; in assay [9] it was 7.35 µM. Also, the TGI in assay [1] is 10.9 µM; in assay [2], 15.8 µM; in assay [3] it was 11.5 µM; in [4], 20.5 µM; in assay [5], 11 µM; in [6], over 100 µM. Besides, the TGI in assay [7] worked out at 4.41 µM; in assay [8], 18.1 µM; in assay [9], 29.9 µM.
Consider `CCCCCCCCCCCCCCCCCC(=O)OCC(C[As](=O)(O)O)OC(=O)CCCCCCCCCCCCCCCCC` (stereo unspecified), for which the TGI is over 100 µM in [1]; over 100 µM in assay [10]; over 100 µM in assay [2]; 81.6 µM in [4]; over 100 µM in assay [5]; over 100 µM in assay [6]. The TGI was 80.8 µM in assay [7], over 100 µM in assay [8] and over 100 µM in assay [9].
For `O=C(NCCNc1nccc(-c2c(-c3ccc(F)cc3)nc3sccn23)n1)c1ccccc1`, the GI50 was 4.31 µM in [1]; 8.75 µM in assay [10]; 17.4 µM in assay [2]; 1.43 µM in assay [3]; 7.27 µM in [4]; 3.81 µM in [5]. Also, the GI50 is 6.97 µM in assay [6], 5.88 µM in assay [7] and 4.87 µM in assay [8]. The TGI in assay [1] was over 100 µM; in [10], 39.3 µM; in [2], 40.1 µM; in assay [3] it was 17.3 µM; in assay [4], 62.5 µM; in assay [5] it was 39.3 µM. Besides, the results for the TGI in assay [6], in assay [7] and in assay [8] were 27.5 µM, 27 µM and 19.9 µM, respectively.
`COc1ccc(-c2nc(N3CCOCC3)c3sc(CN(C)c4ncc(C(=O)NO)cn4)cc3n2)cn1`: the GI50 in assay [1] was under 0.01 µM; in assay [10] it was 0.02 µM; in [3], under 0.01 µM; in [4], under 0.01 µM; in [6], under 0.01 µM; in assay [7] it was under 0.01 µM. Besides, in assay [9], the GI50 was under 0.01 µM. For the same compound, the TGI in assay [1] is 0.0331 µM; in assay [10], 0.0799 µM; in assay [3], 0.366 µM; in assay [4] it was 0.152 µM; in assay [6], 0.042 µM; in [9] it was 0.0352 µM.
Take `C/C(=C\CCc1ccsc1)CC/C=C(\C)CCCN1CCC(CO)CC1`: the GI50 in assay [1] was 1.94 µM; in assay [2] it was 1.97 µM; in assay [3] it was 2.17 µM; in assay [4], 1.69 µM; in assay [5], 1.86 µM; in [6], 2 µM. Besides, the GI50 in assay [7] is 1.93 µM; in assay [8], 1.81 µM; in assay [9] it was 1.71 µM. In addition, the TGI in [1] was 5.64 µM; in assay [2] it was 3.77 µM; in assay [3], 5.09 µM; in assay [4] it was 4.56 µM; in assay [5], 4.01 µM; in assay [6], 4.13 µM. For the same compound, the TGI in assay [7] worked out at 4.15 µM; in [8] it was 3.64 µM; in assay [9], 3.37 µM.
On to `O=C1NC(c2c(Cl)cccc2Cl)Nc2ccccc21` (stereo unspecified), for which the TGI in [1] was over 100 µM; in assay [10], over 100 µM; in assay [3], over 100 µM; in assay [4], 37.4 µM; in assay [5], over 100 µM; in [6] it was over 100 µM. The TGI in [7] was over 100 µM; in [8], over 100 µM; in assay [9] it was 88.7 µM.
`Cc1ccc(NC2=C(Cl)C(=O)N(Cc3ccccc3)C2=O)cc1Cl`: the GI50 in assay [1] was 14.3 µM; in [3], 3.3 µM; in [5], 5.4 µM; in assay [6], 7.66 µM; in assay [7], 0.454 µM; in assay [8] it was 3.85 µM. Further, the GI50 in [9] is 0.598 µM. The TGI in [1] came to 36.6 µM; in assay [3], 13.7 µM; in assay [5], 21.4 µM; in [6], 22.5 µM; in assay [7] it was 3.36 µM; in assay [8], 16.8 µM. Also, the TGI in assay [9] was determined as 9.14 µM.
Take `CCC[CH2][Sn]1([CH2]CCC)[O]CC(CN2CCOCC2)[O]1` (stereo unspecified): the GI50 in assay [1] is 9.65 µM; in assay [10], 1.53 µM; in assay [2], 8.82 µM; in assay [4], 2.16 µM; in assay [5], 6.4 µM; in assay [6] it was 2.46 µM. The values for the GI50 in assay [7], in assay [8] and in [9] were 1.44 µM, 1.79 µM and 1.62 µM, respectively. Besides, the TGI in assay [1] was determined as 23.6 µM; in [10] it was 3.66 µM; in [2], 21.6 µM; in assay [4], 7.05 µM; in assay [5], 18.6 µM; in assay [6] it was 10.9 µM. Also, the TGI is 4.7 µM in [7], 4.55 µM in assay [8] and 5.64 µM in assay [9].
Turning to `COC(=O)C1=C(CS(=O)c2ccc([N+](=O)[O-])cc2[N+](=O)[O-])ON(C)C1c1ccccc1` (stereo unspecified), the TGI was 55.2 µM in [1]; over 100 µM in assay [10]; over 56.7 µM in assay [2]; 77.6 µM in assay [4]; over 78.9 µM in assay [5]; over 100 µM in assay [6]. In addition, the TGI in [7] was 46 µM; in assay [8], over 75.2 µM; in [9], over 100 µM.
With `COc1ccc(NC(=O)CC(=O)N2N=C(N(CCC#N)c3cccc(C)c3)CC2c2ccccc2)cc1` (stereo unspecified), the TGI in assay [1], in assay [10], in assay [2], in assay [4], in [5] and in assay [6] was over 100 µM each time. Moreover, the TGI in assay [7], in assay [8] and in [9] was over 100 µM throughout.
For the compound `CCOC(=O)N[C@@H]1C2CC(=O)C(O2)[C@@H]1OC` (stereo partly specified), the TGI in assay [1], in [10], in assay [2], in assay [4], in assay [5] and in assay [6] was over 100 µM in each case. The TGI in [7], in assay [8] and in assay [9] was over 100 µM each time.
For `O=C(NC1CCCCC1)NS(=O)(=O)c1ccc(-n2nc3c(c2-c2ccc(Cl)cc2)Cc2ccccc2-3)cc1`, the GI50 was 34.8 µM in assay [1]; 19.4 µM in assay [10]; 15.3 µM in assay [3]; 27.6 µM in assay [4]; 7.79 µM in [5]; 11.3 µM in assay [6]. Besides, the results for the GI50 in assay [7] and in assay [8] were 2.11 µM and 10.9 µM, respectively. In addition, the TGI is over 100 µM in assay [1]; 44.2 µM in [10]; 45.7 µM in assay [3]; over 100 µM in assay [4]; 31.2 µM in assay [5]; 28.9 µM in assay [6]. In addition, the TGI in assay [7] turned out to be 5.43 µM; in assay [8] it was 24 µM.
With `NCCCNCCSSC/C=C\CSSCCNCCCN`, the TGI in [1] is 31.4 µM and 27.5 µM; in assay [10], over 100 µM; in assay [2] it was over 100 µM; in assay [4], over 100 µM; in [5], over 100 µM; in assay [6] it was over 100 µM. For the same compound, the TGI in assay [7], in assay [8] and in [9] was over 100 µM each time. Besides, the GI50 in assay [6] was 81.3 µM and 39.9 µM.
For `Cc1sc(NC2=NC(=O)/C(=C\c3ccccc3)S2)nc1-c1nc(NC2=NC(=O)/C(=C\c3ccccc3)S2)sc1C`, the GI50 in assay [1] is 23.3 µM; in assay [10], over 35.1 µM; in [2], 14.2 µM; in [3], 16.2 µM; in assay [5], 13 µM; in [6], 13.2 µM. The results for the GI50 in assay [7] and in assay [8] were 8.45 µM and 7.45 µM, respectively. In addition, the TGI in assay [1] was over 50 µM; in assay [10], over 50 µM; in assay [2] it was 39.9 µM; in assay [3], over 50 µM; in assay [5], over 39.6 µM; in [6], over 40.7 µM. For the same compound, the TGI in assay [7] was 31.6 µM; in assay [8] it was 24 µM.
`Nc1ccc(-c2nc3ccccc3o2)cc1S`: the GI50 in [10] was 42.4 µM; in assay [2], 14.4 µM; in assay [3], 12.1 µM; in [5], 16.5 µM; in [6] it was 13.6 µM; in assay [7] it was 12.4 µM. Also, the GI50 in assay [8] is 13.2 µM. Further, the TGI was over 100 µM in assay [10]; 32.2 µM in [2]; 38.3 µM in assay [3]; 30.3 µM in assay [5]; 28.8 µM in assay [6]; 32 µM in assay [7]. The compound further returned a TGI in [8] of 26 µM.
For `NC(=O)CCC(NC(=O)Cc1ccccc1)C(=O)O` (stereo unspecified) (tested in a mixture with another compound), the TGI in [1] is over 8130 µM; in [10], over 8130 µM; in assay [2], over 8130 µM; in [4], 1680 µM and > 8130 µM; in assay [5], over 2470 µM; in [6] it was over 8130 µM. The TGI in assay [7], in assay [8] and in assay [9] was over 8130 µM throughout.
